According to patent US11491128B2, “Reversible nitroxide derivatives of nitroalkenes that mediate nitrosating and alkylating reactions” (University of Pittsburgh—Of the Commonwealth System of …, priority 2016, dated 2022):

Legend:
[1] = N-nitrosation of 2,3-diaminonaphtalene (DAN) to 2,3-naphthotriazole (NAT), followed by HPLC-MS/MS; assay type: physicochemical; conditions: for formation of NAT: 20 μM DAN
Description: To investigate if the degradation of NO2—NO3-CLA induced generation of nitrosative species, N-nitrosation of 2,3-diaminonaphtalene (DAN) to yield 2,3-naphthotriazole (NAT) was performed. Briefly, 25 μl synthetic NO2—NO3-CLA standards were dried under a stream of nitrogen gas, and resuspended in 1 ml of solvents at different polarity with 20 μM DAN. Then, formation of NAT was followed over 60 min by HPLC-MS/MS (FIG. 4).
Analysis of NAT was performed by HPLC-MS/MS using an analytical C18 Luna column (2×20 mm, 5 μm, Phenomenex) at a 0.75 ml/min flow rate, with a gradient solvent system consisting of water containing 0.1% acetic acid (solvent A) and acetonitrile containing 0.1% acetic acid (solvent B). Samples were chromatographically resolved using the following gradient program: 10-100% solvent B (0-3.3 min); 100% solvent B (3.3-4.2 min) followed by 0.8 min re-equilibration to initial conditions. An API4000 Q-trap triple quadrupole mass spectrometer (Applied Biosystems, San Jose, Calif.), equipped with an electrospray ionization source (ESI) in positive mode, was used with the following parameters: declustering potential, 70 V; entrance potential 5; collision cell exit potential 10; collision energy 35; and a desolvation temperature of 650° C. NAT was analyzed using the MRM transition 170.1/115.1.

[2] = UV-Vis analysis of NO2-CLA generation by decomposition of NO2—NO3—CLA at different pH (312 nm); assay type: physicochemical; conditions: 312 nm (FIG. 1)
Description: Synthetic NO2—NO3—CLA standards were generated by performing independent reactions of 0.5 mg conjugated-9,11-linoleic acid (CLA, cat. no. UC-60A, Nu-Check Prep Inc., Elysian, Minn.) with 2 mM sodium nitrite (NaNO2) in 1 ml artificial gastric fluid for 1 h at 37° C., under continuous agitation. The lipid fraction was extracted by hexane, 50 μl were dried under a stream of nitrogen gas, dissolved in 300 μl methanol and decomposition of the NO2—NO3—CLA with generation of NO2-CLA was measured spectrophotometrically at 312 nm (FIG. 1). The addition of 10 μl acetic acid to the methanolic solution confirmed the stability of NO2—NO3—CLA at acidic pH (FIG. 1, diamond curve).

For `CCCCCCC(/C=C/C(CCCCCCCC(=O)O)[N+](=O)[O-])O[N+](=O)[O-]` (centres unmarked) [NO2—NO3-CLA, (E)-9-nitro-12-(nitrooxy)octadec-10-enoic acid], the “formation of NAT” value ([1]; dissolved in methanol, over 60 min (FIG. 4, square curve)) was “none formation of NAT was observed”, the “stability of NO2—NO3-CLA in basic pH” value ([1]; phosphate buffer 50 mM, pH 7.4 with 100 μM DTPA) was “instability” and the “formation of NAT” value ([1]; phosphate buffer 50 mM, pH 7.4 with 100 μM DTPA, over 60 min (FIG. 4, circle curve)) was “time dependent generation of NAT”. For the same compound, the “degradation of NO2—NO3—CLA with generation of NO2-CLA” value ([2]; methanolic solution + 10 μl phosphate buffer 50 mM pH 7.4 or 10 μl ammonium hydroxide) was “pH-dependent” and the “rate of NO2-CLA generation on pH increase from pH 7.4 to more basic pH” value ([2]; phosphate buffer pH 7.4 versus ammonium hydroxide) was “faster generation of NO2-CLA”.
